One experiment has as its target Large T antigen (Simian virus 40, UniProt P03070). It is filed as functional, Betapolyomavirus macacae.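 Further: Confirmatory-stage PubChem screen for compounds that inhibit SV40 T antigen.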
In experiment [1] the target is T1, Orexin receptor type 2 (Homo sapiens, UniProt O43614).
T1 sequence (O43614 whole entry): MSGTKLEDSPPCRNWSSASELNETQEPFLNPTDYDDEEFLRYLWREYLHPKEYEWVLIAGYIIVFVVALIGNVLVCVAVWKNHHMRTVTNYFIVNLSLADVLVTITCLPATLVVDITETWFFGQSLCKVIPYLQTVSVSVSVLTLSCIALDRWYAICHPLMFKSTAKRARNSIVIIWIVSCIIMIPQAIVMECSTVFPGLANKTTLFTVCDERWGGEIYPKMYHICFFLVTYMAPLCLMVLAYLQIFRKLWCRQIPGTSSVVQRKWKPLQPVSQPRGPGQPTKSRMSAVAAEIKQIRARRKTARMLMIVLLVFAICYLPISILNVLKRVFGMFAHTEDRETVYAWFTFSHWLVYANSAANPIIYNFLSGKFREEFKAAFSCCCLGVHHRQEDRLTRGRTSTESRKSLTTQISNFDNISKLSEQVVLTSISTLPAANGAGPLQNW
Nature of the experiment: Counterscreen assay for antagonists of the orexin 1 receptor (OX1R; HCRTR1): Homogeneous Time Resolved Fluorescence (HTRF)-based cell-based dose response assay for antagonists of the orexin 2 receptor (OX2R; HCRTR2), run by assay provider. The format is functional. (A counterscreen serves to expose hits that act by an unwanted route or on another target.)

Experiment [2] deals with Phosphoethanolamine/phosphocholine phosphatase (Homo sapiens, UniProt Q8TCT1). Nature of the experiment: SAR assay for compounds that inhibit PHOSPHO1. [Related pubchem assays (depositor defined):AID1545, AID1565, AID1574].
The next experiment deals with Genome polyprotein (dengue virus type 2, UniProt P29990). Description: Dengue-2 NS5 methyltransferase inhibitors, primary screen, biochemical, confirmation dose response (AID 588689). The format is functional.
The target of experiment [3] is T1, Orexin receptor type 2. Nature of the experiment: Counterscreen assay for antagonists of the orexin 1 receptor (OX1R; HCRTR1): Fluorescence-based cell-based dose response assay for antagonists of the orexin 2 receptor (OX2R; HCRTR2), run by assay provider. The format is functional.
Experiment [4] has as its target DNA dC->dU-editing enzyme APOBEC-3G (Homo sapiens, UniProt Q9HC16). Description: Dose Response confirmation of small molecule APOBEC3G DNA Deaminase Inhibitors via a fluorescence-based single-stranded DNA deaminase assay. [Related pubchem assays (depositor defined):AID493012, AID493028]. The format is functional.
Experiment [5] deals with T2, Mannose-6-phosphate isomerase (Homo sapiens, UniProt P34949).
T2 sequence (P34949 whole entry): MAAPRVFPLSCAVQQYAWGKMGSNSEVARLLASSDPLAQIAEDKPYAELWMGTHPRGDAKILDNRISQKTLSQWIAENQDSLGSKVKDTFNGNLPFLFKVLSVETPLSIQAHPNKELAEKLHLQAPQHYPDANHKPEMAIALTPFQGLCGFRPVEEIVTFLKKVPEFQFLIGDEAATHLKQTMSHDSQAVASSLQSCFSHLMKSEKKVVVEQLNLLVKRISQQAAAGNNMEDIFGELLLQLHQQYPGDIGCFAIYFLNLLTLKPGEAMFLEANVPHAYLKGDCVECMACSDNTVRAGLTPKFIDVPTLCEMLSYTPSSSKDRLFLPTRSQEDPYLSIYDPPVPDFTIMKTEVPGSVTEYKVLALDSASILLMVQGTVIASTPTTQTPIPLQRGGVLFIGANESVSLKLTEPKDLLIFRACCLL
Nature of the experiment: PMI enzyme inhibitors, confirmation, biochemical, fluorescence intensity (AID 1535).

The next experiment concerns the target T3, Phosphomannomutase 2 (Homo sapiens, UniProt O15305).
T3 sequence (O15305 whole entry): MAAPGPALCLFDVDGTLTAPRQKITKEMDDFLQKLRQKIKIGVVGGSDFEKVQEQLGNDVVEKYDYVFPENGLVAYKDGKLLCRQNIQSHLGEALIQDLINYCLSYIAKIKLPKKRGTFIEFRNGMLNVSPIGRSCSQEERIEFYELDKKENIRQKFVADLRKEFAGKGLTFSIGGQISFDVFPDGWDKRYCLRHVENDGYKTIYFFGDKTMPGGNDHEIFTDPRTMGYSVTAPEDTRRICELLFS
Nature of the experiment: Counter screen SAR assay for PMM2 inhibitors via a fluorescence intensity assay. [Related pubchem assays (depositor defined):AID1545, AID1574].

Experiment [6] has as its target Glucose-6-phosphate 1-dehydrogenase (Homo sapiens, UniProt P11413). Description: human G6PD enzyme inhibitors, dose response, selectivity assay for P. falciparum G6PD inhibitor project, biochemical, fluorescence (AID 504792). It is filed as functional.
The nature of experiment [7]: Counterscreen for IDE inhibitors: Luminescence-based cell-based high throughput dose response assay to identify compounds that are cytotoxic to HEK cells. [Related pubchem assays: 434962 (Primary screen (IDE inhibitors in singlicate)), 449730 (Counterscreen (Cytotoxicity in triplicate)), 435028 (Confirmation (IDE inhibitors in triplicate)) …. To be noted: HEK293. It is filed as functional.

A further experiment concerns Vero. Nature of the experiment: Vero cell cytotoxicity, cytotoxicity control for flavivirus capping enzyme inhibitors (AID 588742). To be noted: Chlorocebus sabaeus. It is filed as functional.
The target of experiment [8] is T4, Alkaline phosphatase, tissue-nonspecific isozyme (Homo sapiens, UniProt P05186).
T4 sequence (P05186 whole entry): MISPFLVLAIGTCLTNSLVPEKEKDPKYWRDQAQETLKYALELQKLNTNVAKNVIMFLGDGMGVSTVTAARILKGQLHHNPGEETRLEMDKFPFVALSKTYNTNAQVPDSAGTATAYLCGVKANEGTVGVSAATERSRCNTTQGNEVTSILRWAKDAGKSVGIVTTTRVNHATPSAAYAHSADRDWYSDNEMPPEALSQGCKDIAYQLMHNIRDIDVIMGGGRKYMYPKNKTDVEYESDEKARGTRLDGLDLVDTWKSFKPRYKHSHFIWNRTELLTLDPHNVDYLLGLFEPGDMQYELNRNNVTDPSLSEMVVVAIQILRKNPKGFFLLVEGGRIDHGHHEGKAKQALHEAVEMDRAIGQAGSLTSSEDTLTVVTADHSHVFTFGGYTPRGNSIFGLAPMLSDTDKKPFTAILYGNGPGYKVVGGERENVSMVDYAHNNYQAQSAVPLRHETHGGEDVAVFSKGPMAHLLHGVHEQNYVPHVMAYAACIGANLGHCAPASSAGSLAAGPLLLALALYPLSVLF
Nature of the experiment: human TNAP enzyme inhibitors, SAR follow-up, biochemical, luminescent, dose response (AID 1056).

For experiment [9], the target named is DNA dC->dU-editing enzyme APOBEC-3A (Homo sapiens, UniProt P31941). Description: APOBEC3A DNA deaminase inhibitors, dose response, biochemical (AID 504722). The format is functional.
The target of experiment [10] is FAD-linked sulfhydryl oxidase ALR (Homo sapiens, UniProt P55789). Description: inhibitors of human ALR sulfhydryl oxidase, dose response, biochemical, H2O2 detection, luminescence, cherry-pick (AID 493248).
The target of experiment [11] is Endoplasmic reticulum aminopeptidase 1 (Homo sapiens, UniProt Q9NZ08). Description: ERAP1 aminopeptidase inhibitors, dose response, biochemical, cherry-pick, set 2, plate reader (AID 743314).
For the next experiment, the target named is T5, Insulin-degrading enzyme (Homo sapiens, UniProt P14735).
T5 sequence (P14735 whole entry): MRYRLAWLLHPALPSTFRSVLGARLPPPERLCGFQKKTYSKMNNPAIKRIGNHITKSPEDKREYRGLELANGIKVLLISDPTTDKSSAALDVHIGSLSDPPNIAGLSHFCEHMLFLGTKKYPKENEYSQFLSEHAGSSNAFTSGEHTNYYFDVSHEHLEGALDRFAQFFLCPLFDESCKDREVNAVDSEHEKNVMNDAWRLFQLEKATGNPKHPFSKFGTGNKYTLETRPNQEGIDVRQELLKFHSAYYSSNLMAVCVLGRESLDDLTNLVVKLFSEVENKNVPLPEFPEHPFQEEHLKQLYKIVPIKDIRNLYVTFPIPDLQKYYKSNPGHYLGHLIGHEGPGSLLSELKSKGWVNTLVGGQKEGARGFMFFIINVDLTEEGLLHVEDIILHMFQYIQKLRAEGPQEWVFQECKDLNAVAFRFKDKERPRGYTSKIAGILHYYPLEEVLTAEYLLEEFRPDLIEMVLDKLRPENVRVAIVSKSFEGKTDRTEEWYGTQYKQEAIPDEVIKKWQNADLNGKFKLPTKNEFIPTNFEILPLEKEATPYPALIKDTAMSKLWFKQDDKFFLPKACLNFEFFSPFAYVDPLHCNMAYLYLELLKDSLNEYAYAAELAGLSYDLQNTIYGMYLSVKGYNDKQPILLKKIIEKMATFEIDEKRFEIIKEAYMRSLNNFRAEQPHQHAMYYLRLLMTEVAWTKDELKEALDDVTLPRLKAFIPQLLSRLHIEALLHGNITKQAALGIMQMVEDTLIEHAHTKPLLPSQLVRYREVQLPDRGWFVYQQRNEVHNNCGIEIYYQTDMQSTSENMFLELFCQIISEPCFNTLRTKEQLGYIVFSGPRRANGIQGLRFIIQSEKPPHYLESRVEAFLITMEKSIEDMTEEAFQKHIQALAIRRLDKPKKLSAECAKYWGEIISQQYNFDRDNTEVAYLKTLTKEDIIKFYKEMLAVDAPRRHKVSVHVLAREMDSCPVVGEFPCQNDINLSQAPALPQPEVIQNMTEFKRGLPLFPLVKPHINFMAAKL
Description: Dose Response: Fluorescence polarization-based cell-based high throughput dose response assay for inhibitors of insulin-degrading enzyme (IDE). [Related pubchem assays: 434962 (Primary screen (IDE inhibitors in singlicate)), 449730 (Counterscreen (Cytotoxicity in triplicate)), 435028 (Confirmation (IDE inhibitors in triplicate)), 434984 (Summary …. The format is functional. For orientation: Fluorescence polarisation rises when a labelled molecule tumbles more slowly, as on binding a larger partner.

The nature of experiment [12]: inhibitors of clade B AD8 Env fusion, dose response, cell-based, cherry-pick (AID 652062).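 Further: luciferase signal from cell-cell fusion driven by HIV-1 clade B AD8 Env; potency is for inhibitors of fusion seen as a drop in luminescence.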 The format is functional.
Experiment [13] in a line: ZM109 Env clade C HIV-1 fusion inhibitors, dose response, HeLa effector, CEM target cells, luciferase, cherry-pick (AID 652058). It is filed as functional, cell-based.
A short description of experiment [14]: inhibitors of Bluetongue virus cytopathic effect, confirmation, arbovirus, BSR cells (AID 1250).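 Further: protection from viral cytopathic effect measured as cell viability by ATP luminescence.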 The format is functional. In general terms: Protection from cytopathic effect is a common read-out in antiviral testing.
Another experiment concerns HEK293. Nature of the experiment: inhibitors of LMP1-driven NF-kB reporter, dose response, cell-based, HEK293, luciferase, cherry-pick (AID 588343). It is filed as functional. To be noted: Homo sapiens.
For another experiment, the target named is Interleukin-8 (Homo sapiens, UniProt P10145). Description: Dose Response confirmation of uHTS small molecule hits for cystic fibrosis induced NFkb Inhibitors in a PAF-induced IL8 counterscreen. To be noted: read-out: IC50_Mean. The format is functional.
Experiment [15] can be described thus: off-target signal loss in HeLa-CEM21 co-culture – HeLa F-luc CTL cells, cherry-picked, counter-screen for HIV-1 Env fusion inhibitor project, dose response (AID 652040).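 Further: potency for signal decrease marking cytotoxic or nonspecific inhibition.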 The format is functional, cell-based.
A short description of experiment [16]: inhibitors of HIV Env-driven cell fusion, dose response, cherry-pick (AID 652057). The format is functional, cell-based.
Experiment [17] can be described thus: CEM21 lymphoblast cell cytotoxicity, dose response, cytotoxicity control for viral fusion inhibitor project, CellTiter-Glo luminescence, cherry-picked (AID 652042).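 Further: potency for signal decrease meaning cytotoxicity.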 It is filed as functional, cell-based.
A further experiment deals with Caspase-6 (Homo sapiens, UniProt P55212). Nature of the experiment: human caspase-6 inhibitors, dose response, biochemical, VEID-R110 fluorescence, cherry-pick (AID 720632).
The target in experiment [18] is DNA (cytosine-5)-methyltransferase 1 (Homo sapiens, UniProt P26358). Nature of the experiment: DNMT1 methyltransferase inhibitors, confirmation, biochemical, fluorescent molecular beacon (AID 602386). The format is functional.

Each structure is given as a SMILES string. The source made the active and inactive calls. A value given as a limit tells only on which side of the number the result lay.

What is called CC50 is the concentration giving 50% cytotoxicity. As usually defined, the AC50 is the concentration giving half of the maximal activity seen.

Chain of Phosphoethanolamine/phosphocholine phosphatase (Q8TCT1 whole entry): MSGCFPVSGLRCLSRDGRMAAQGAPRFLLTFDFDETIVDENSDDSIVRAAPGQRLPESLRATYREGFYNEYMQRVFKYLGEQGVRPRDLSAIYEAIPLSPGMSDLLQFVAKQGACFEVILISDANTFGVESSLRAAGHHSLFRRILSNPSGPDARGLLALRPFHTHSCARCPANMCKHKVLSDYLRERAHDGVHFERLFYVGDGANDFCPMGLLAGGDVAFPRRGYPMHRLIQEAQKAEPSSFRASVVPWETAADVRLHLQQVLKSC
Chain of DNA dC->dU-editing enzyme APOBEC-3G (Q9HC16 whole entry): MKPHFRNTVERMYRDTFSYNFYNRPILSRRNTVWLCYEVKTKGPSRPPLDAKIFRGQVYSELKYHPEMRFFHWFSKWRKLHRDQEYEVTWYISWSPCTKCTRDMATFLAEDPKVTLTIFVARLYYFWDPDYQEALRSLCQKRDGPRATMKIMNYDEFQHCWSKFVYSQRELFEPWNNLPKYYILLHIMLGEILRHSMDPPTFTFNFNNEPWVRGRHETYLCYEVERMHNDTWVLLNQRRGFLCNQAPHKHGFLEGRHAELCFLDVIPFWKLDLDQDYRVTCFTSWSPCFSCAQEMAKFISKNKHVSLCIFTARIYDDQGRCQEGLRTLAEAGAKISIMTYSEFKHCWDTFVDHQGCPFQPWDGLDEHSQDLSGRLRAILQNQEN
Chain of Interleukin-8 (P10145 whole entry, the tested form may be a part): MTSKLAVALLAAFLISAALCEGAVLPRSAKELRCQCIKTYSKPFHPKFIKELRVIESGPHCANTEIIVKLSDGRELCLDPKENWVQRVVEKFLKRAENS
Chain of FAD-linked sulfhydryl oxidase ALR (P55789 whole entry): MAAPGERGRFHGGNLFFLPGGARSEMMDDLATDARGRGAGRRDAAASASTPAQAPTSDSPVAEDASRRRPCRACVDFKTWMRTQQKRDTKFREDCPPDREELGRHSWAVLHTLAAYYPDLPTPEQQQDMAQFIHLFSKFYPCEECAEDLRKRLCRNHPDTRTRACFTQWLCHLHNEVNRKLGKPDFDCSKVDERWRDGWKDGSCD
Chain of Glucose-6-phosphate 1-dehydrogenase (P11413 whole entry): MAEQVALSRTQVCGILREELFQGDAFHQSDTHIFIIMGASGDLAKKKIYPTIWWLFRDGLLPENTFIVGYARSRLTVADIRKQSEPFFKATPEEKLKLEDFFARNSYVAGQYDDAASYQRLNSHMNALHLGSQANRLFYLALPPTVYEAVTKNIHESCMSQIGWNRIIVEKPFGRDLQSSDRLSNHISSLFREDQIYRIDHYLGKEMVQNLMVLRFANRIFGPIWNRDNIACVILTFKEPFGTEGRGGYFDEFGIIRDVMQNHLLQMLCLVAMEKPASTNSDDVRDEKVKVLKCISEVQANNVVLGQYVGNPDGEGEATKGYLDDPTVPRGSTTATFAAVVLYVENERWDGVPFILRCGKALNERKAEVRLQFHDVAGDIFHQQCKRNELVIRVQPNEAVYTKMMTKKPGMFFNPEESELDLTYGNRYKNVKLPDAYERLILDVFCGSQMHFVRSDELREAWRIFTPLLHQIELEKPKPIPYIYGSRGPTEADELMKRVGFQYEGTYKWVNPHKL
Chain of Genome polyprotein (P29990 2492-3391 limits assumed): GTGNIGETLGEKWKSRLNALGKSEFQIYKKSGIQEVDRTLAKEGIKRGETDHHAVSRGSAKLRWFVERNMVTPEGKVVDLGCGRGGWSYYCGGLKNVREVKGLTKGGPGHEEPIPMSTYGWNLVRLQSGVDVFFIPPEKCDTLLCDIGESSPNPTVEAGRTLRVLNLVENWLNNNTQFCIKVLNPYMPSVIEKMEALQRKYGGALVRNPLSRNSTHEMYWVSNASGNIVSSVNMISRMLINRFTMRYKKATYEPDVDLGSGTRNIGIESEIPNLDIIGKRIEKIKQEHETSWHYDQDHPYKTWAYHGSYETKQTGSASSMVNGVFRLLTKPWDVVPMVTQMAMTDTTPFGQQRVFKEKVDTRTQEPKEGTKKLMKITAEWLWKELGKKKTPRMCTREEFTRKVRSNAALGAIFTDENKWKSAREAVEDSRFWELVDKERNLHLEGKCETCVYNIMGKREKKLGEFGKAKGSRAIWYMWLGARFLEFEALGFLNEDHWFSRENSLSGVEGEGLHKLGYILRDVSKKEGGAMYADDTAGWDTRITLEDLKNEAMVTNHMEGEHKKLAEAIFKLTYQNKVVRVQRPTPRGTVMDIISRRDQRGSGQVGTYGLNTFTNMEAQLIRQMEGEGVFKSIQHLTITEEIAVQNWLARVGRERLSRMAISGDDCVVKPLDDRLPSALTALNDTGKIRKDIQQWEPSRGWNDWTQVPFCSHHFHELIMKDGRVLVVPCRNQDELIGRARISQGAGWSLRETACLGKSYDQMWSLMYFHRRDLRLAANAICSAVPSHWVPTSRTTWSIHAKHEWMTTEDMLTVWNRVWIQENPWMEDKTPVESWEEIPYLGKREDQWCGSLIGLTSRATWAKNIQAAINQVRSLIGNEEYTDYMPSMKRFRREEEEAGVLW
Chain of Endoplasmic reticulum aminopeptidase 1 (Q9NZ08 whole entry): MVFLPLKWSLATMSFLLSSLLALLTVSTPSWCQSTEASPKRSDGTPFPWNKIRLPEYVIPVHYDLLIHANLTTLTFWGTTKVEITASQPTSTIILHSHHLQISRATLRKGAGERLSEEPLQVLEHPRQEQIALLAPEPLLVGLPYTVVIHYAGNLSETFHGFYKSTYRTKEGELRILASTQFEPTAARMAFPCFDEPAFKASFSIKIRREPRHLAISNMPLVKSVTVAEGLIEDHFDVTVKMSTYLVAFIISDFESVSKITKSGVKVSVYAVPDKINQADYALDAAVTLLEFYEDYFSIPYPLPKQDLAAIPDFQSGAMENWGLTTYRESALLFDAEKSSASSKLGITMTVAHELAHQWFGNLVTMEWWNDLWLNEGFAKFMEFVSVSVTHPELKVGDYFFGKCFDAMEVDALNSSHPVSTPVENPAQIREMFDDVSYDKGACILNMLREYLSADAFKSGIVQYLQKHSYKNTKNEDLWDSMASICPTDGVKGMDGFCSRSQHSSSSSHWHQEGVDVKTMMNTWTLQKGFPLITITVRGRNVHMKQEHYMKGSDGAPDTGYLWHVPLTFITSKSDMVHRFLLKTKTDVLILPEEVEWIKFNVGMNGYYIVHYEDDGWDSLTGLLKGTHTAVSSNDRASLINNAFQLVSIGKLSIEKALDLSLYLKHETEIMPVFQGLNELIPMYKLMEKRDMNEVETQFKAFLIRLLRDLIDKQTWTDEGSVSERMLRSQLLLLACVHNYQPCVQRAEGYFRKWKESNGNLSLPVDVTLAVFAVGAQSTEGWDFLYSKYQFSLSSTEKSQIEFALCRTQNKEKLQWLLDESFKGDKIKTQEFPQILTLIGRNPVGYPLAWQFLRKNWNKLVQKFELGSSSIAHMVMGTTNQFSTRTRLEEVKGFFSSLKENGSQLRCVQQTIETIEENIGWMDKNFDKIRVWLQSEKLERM
Chain of Caspase-6 (P55212 24-179 limits assumed): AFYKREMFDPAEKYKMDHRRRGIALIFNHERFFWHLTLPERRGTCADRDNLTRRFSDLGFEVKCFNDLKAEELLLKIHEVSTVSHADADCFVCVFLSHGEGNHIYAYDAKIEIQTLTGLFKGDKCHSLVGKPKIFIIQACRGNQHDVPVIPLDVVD
Chain of Caspase-6 (P55212 194-293 limits assumed): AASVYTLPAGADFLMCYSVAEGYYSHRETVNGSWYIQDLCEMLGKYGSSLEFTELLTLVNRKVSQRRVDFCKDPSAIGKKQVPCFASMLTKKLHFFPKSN
Chain of Large T antigen (P03070 whole entry): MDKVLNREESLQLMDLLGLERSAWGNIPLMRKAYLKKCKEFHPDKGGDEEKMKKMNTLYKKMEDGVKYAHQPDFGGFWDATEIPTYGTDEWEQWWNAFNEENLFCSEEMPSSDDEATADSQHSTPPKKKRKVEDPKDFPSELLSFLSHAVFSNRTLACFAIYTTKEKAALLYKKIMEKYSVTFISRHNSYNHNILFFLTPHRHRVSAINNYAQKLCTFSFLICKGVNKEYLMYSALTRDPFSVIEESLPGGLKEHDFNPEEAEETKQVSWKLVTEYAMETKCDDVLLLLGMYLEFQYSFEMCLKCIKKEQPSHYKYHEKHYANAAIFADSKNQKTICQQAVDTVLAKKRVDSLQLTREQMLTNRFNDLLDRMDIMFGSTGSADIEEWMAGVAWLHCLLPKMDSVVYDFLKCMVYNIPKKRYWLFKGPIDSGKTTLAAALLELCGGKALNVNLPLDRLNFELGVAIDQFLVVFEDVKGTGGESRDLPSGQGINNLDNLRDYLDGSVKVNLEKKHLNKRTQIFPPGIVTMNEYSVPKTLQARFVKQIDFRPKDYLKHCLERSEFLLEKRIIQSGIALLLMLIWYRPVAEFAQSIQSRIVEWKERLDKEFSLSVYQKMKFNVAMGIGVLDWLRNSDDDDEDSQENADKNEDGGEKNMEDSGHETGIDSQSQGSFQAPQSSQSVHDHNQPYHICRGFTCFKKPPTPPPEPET
Chain of DNA dC->dU-editing enzyme APOBEC-3A (P31941 whole entry): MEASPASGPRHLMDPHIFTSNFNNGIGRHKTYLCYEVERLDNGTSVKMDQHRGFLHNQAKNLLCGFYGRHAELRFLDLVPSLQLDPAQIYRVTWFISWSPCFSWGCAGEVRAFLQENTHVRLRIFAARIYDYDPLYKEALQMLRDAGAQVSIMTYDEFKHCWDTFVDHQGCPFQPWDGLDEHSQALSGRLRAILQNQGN

For the compound `O=C(O)c1ccccc1NS(=O)(=O)c1cccc(-n2sc3ccccc3c2=O)c1`, the IC50 on Large T antigen was 13.2 µM (active); at Orexin receptor type 2 [1], 3.45 µM (active); in [2] it was 0.808 µM (active); at Genome polyprotein, 46.4 µM (active); at Orexin receptor type 2 [3] it was 6.8 µM (active); in [4] it was 9.14 µM (active). The IC50 was 0.707 µM (active) in [5]; 5.15 µM (active) at Phosphomannomutase 2; 17.6 µM (active) in experiment [6]; 34.8 µM (not active) in [7]; > 100 µM (inactive) in experiment [8]; > 100 µM (inactive) in experiment [9]. The IC50 at Insulin-degrading enzyme was 2.1 µM (active). In addition, the CC50 in the experiment on Vero is > 40 µM (active). Further, the values for the AC50 in [10] and in experiment [11] were 0.243 µM (active) and 0.73 µM (active), respectively.

Take `Clc1ccccc1C1=Nn2c(nnc2-c2ccncc2)SC1`: the AC50 in experiment [12] was 1.83 µM (active); in experiment [13], 1.45 µM (active); in the experiment on HEK293 it was 14.2 µM (active); in experiment [15], 1.96 µM (active); in [16] it was 3.15 µM (active); in [17], 63.6 µM (active). Also, the IC50 in experiment [14] was 22.6 µM (active); at Interleukin-8, 8.72 µM (active).

Take `O=C(O)CCc1ccc(S(=O)(=O)Nc2cc(C(F)(F)F)ccc2N2CCCC2)cc1`: the AC50 on Caspase-6 is 38.4 µM (active). The IC50 in [18] is 11.7 µM (active).

Values taken from ChEMBL document CHEMBL1201862, “PubChem BioAssay data set” (2004).
